system: D4 receptors; test: D4 receptor binding, 3H-YM 09151-2 displacement, COS cell pellets; set-up: species or system African Green monkey; conditions: evaluated in the assays described above (Example 7); read-out: interaction with the D4 receptor subtype (IC50)
Procedure: (§1) Pellets of COS cells containing recombinantly produced D2 or D4 receptors from African Green monkey are used for the assays. The sample is homogenized in 100 volumes (w/vol) of 0.05 M Tris HCl buffer at 4° C. and pH 7.4. The sample is then centrifuged at 30,000×g and resuspended and rehomogenized. The sample is again centrifuged as described above and the final tissue sample is frozen until use. The tissue is resuspended 1:20 (wt/vol) in 0.05 M Tris HCl buffer containing 100 mm NaCl.
(§2) Incubations are carried out at […] and contain 0.4 ml of tissue sample, 0.5 nM ^3H-YM 09151-2 (Nemonapride, cis-5-Chloro-2-methoxy-4-(methylamino)-N-(2-methyl-2-(phenylmethyl)-3-pyrrolidinyl)benzamide) and the compound of interest in a total incubation of 1.0 ml. Nonspecific binding is defined as that binding found in the presence of […]; without further additions, nonspecific binding is less than 20% of total binding. Binding characteristics for examples of compounds encompassed within Formula I for the D2 and D4 receptor subtypes are shown in Table 2 for rat striatal homogenates.

Compared with `c1ccc(CN2CCN(c3ccc4ccccc4c3)CC2)cc1` [Comparative Compound A, 1-naphth-2-yl-4-benzylpiperazine, reference compound], `c1ccc(CN2CCN(c3ccc4ccccc4n3)CC2)cc1` [Comparative Compound B, 1-(quinolin-2-yl)-4-benzylpiperazine, reference compound] is 5.9-fold higher in IC50: 33 nM for the first, 194 nM for the second. The first is the more potent here.

same assay, conditions: recombinant receptor in COS cells; 0.5 nM 3H-YM 09151-2

`Cc1ccc(CN2CCN(c3ccc4ccccc4n3)CC2)cc1` [Compound 2] and `Clc1ccc(CN2CCN(c3ccc4ccccc4c3)CC2)cc1` [Compound 6] are within 1.5-fold of each other in Ki: 8 nM for the first, 9 nM for the second.

Going from `Clc1ccc(CN2CCN(c3ccc4c(n3)CCCC4)CC2)cc1` [Compound 7] to `Clc1ccc(CN2CCN(c3cnc4ccccc4n3)CC2)cc1` [Compound 3], the Ki rises from 7 nM to 11 nM (1.6-fold). The first binds more tightly here.

system: not given; test: not given; conditions: not given

First: COc1ccc2nc(N3CCN(Cc4ccc(Cl)cc4)CC3)cc(C)c2c1.Cl
Second: Br.Cc1ccc2c(C)cc(N3CCN(Cc4ccc(Cl)cc4)CC3)nc2c1
The melting point of the first is lower: 250 to 253 °C for the first, 295 to 296 °C for the second.

First: Br.Cc1cc(N2CCN(Cc3ccc(Cl)cc3)CC2)nc2c(C)cccc12
Second: Br.Cc1cc(N2CCN(Cc3ccc(Cl)cc3)CC2)nc2ccccc12
The melting point of the first is higher: 262 to 264 °C for the first, 215 to 217 °C for the second.

First: Br.Cc1ccc(CN2CCN(c3ccc4ccccc4c3)CC2)cc1
Second: Br.Fc1ccc(CN2CCN(c3ccc4ccccc4c3)CC2)cc1
The melting point of the first is lower: 222 to 223 °C for the first, 244 to 246 °C for the second.

First: CC(C)(C)c1ccc(CN2CCN(c3ccc4ccccc4n3)CC2)cc1.Cl
Second: Cc1ccc(CN2CCN(c3ccc4ccccc4n3)CC2)cc1.Cl
The melting point of the first is higher: 285 to 287 °C for the first, 278 to 280 °C for the second.

First: Br.FC(F)(F)c1ccc(CN2CCN(c3ccc4ccccc4n3)CC2)cc1
Second: FC(F)(F)Oc1ccc(CN2CCN(c3ccc4ccccc4n3)CC2)cc1 [Example 3(l), 1-(quinolin-2-yl)-4-(1-[4-trifluoromethoxyphenyl]methyl)piperazine]
The melting point of the first is higher: 271 to 273 °C for the first, 109 to 110 °C for the second.

`CC(C)c1ccc(CN2CCN(c3ccc4ccccc4n3)CC2)cc1.Cl` and `Br.Clc1ccc(CN2CCN(c3ccc4ccccc4n3)CC2)cc1` cannot be ordered by melting point: 270 to 271 °C for the first, 268 to 271 °C for the second.

First: Fc1ccc(CN2CCN(c3cc(F)c4ccccc4n3)CC2)cc1.O=C(O)C(=O)O
Second: Fc1cc(N2CCN(Cc3ccccc3)CC2)nc2ccccc12.O=C(O)C(=O)O
The melting point of the first is higher: 191 to 193 °C for the first, 186 to 187 °C for the second.

First: Br.c1ccc2nc(N3CCN(Cc4ccc5c(c4)OCO5)CC3)ccc2c1
Second: Br.Clc1ccc(CN2CCN(c3ccc4ccccc4n3)CC2)cc1Cl
The melting point of the first is lower: 279 to 280 °C for the first, 285 to 287 °C for the second.

First: Br.Fc1ccccc1CN1CCN(c2ccc3ccccc3c2)CC1
Second: Br.Fc1cccc(CN2CCN(c3ccc4ccccc4c3)CC2)c1
The melting point of the first is lower: 239 to 240 °C for the first, 253 to 255 °C for the second.

Compared with `Clc1ccc(CN2CCN(c3ncc4ccccc4n3)CC2)cc1.O=C(O)C(=O)O`, `Clc1ccc(CN2CCN(c3cnc4ccccc4n3)CC2)cc1.O=C(O)C(=O)O` is higher in melting point: 207 to 209 °C for the first, 209 to 212 °C for the second.

Compared with `Cl.Clc1ccc(CN2CCN(c3ccc4ccccc4c3)CC2)cc1`, `Br.Cc1nc2ccccc2nc1N1CCN(Cc2ccc(Cl)cc2)CC1` is higher in melting point: 216 to 218 °C for the first, 293 to 295 °C for the second.

target: T1, D2 receptors (Chlorocebus aethiops, UniProt P52702); test: D2 receptor binding, 3H-YM 09151-2 displacement, COS cell pellets; set-up: species or system African Green monkey; conditions: recombinant receptor in COS cells; 0.5 nM 3H-YM 09151-2
T1 construct: expressed in transfected cells; host or cells: COS cells
T1 sequence (P52702 whole entry): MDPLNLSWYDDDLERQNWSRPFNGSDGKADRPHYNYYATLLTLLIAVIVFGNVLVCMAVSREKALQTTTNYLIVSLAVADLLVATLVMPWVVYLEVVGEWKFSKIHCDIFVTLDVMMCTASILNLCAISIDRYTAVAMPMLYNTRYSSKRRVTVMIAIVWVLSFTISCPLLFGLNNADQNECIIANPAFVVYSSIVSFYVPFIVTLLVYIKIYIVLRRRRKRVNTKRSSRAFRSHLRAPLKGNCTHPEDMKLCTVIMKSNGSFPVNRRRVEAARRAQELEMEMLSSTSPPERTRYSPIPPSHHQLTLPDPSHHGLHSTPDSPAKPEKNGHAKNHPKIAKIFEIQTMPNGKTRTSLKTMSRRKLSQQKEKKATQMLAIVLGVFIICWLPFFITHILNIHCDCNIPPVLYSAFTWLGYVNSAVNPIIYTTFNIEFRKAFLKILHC
Procedure: as §1, §2

`Cc1ccc(CN2CCN(c3ccc4ccccc4n3)CC2)cc1` [Compound 2] and `Clc1ccc(CN2CCN(c3ccc4ccccc4c3)CC2)cc1` [Compound 6] cannot be ordered by Ki: over 4000 nM for the first, over 4000 nM for the second.

First: Clc1ccc(CN2CCN(c3ccc4c(n3)CCCC4)CC2)cc1 [Compound 7]
Second: Clc1ccc(CN2CCN(c3cnc4ccccc4n3)CC2)cc1 [Compound 3]
The Ki of the first is lower: 1930 nM for the first, over 4000 nM for the second. The first binds more tightly here.

From patent US6384224B2, “Certain 1-(2-naphthyl) and 1-(2-azanaphthyl)-4-(1-phenylmethyl) piperazines; dopamine receptor subtype specific ligands” (Neurogen Corporation, priority 1997, dated 2002)
